Test results from patent US20070129358A1, “Sbstituted chroman derivatives, processes for their preparation and their use as antiinflammatory agents” (priority 2005, published 2007).

How the values were obtained:
[1] = target: T1, glucocorticoid receptor (GR) (Homo sapiens, UniProt P04150); assay: Glucocorticoid receptor binding with recombinantly prepared receptor, [3H]-dexamethasone as reference; settings: cytosol preparations of Sf9 cells infected with recombinant baculoviruses coding for GR
T1 construct: made in house; host or cells: Sf9 cells infected with recombinant baculovirus (cytosol preparation)
T1 sequence (P04150 1-777): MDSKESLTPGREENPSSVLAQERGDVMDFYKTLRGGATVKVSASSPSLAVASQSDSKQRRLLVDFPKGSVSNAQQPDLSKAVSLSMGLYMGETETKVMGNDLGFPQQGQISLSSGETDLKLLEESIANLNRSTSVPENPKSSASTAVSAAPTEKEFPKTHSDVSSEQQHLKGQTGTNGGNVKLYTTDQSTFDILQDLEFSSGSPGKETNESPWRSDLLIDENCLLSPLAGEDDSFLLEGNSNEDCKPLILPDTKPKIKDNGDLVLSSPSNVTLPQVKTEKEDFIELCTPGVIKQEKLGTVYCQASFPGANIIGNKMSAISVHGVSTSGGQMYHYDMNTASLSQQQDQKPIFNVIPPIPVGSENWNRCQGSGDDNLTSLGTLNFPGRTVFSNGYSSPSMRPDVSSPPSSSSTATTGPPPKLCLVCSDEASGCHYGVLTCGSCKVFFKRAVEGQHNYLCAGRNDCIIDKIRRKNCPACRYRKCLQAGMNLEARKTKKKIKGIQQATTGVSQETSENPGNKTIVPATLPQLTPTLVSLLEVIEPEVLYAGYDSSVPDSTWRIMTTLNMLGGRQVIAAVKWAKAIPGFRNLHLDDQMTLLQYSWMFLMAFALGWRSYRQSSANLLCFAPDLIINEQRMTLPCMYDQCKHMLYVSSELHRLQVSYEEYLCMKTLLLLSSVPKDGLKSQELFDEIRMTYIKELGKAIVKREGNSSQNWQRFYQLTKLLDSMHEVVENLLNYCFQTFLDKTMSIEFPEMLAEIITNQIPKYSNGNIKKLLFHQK
Description: (§1) The binding of the substances to the glucocorticoid receptor (GR) and further steroid hormone receptors (mineral corticoid receptor (MR), progesterone receptor (PR) and androgen receptor (AR)) is examined with the aid of recombinantly prepared receptors. Cytosol preparations of Sf9 cells which had been infected with recombinant baculoviruses which code for the GR are employed for the binding studies. Compared with the reference substance [^3H]-dexamethasdne, the substances show a high affinity for the GR. Thus, an IC50(GR)=20 nM and IC50(PR) >1 μM was measured for the compound of example 1 and an IC50(GR)=30 nM and IC50(PR) >1 μM was measured for the compound of example 2.

[2] = target: T2, progesterone receptor (PR) (Homo sapiens, UniProt P06401); assay: Progesterone receptor binding with recombinantly prepared receptor
T2 construct: made in house
T2 sequence (P06401 1-933): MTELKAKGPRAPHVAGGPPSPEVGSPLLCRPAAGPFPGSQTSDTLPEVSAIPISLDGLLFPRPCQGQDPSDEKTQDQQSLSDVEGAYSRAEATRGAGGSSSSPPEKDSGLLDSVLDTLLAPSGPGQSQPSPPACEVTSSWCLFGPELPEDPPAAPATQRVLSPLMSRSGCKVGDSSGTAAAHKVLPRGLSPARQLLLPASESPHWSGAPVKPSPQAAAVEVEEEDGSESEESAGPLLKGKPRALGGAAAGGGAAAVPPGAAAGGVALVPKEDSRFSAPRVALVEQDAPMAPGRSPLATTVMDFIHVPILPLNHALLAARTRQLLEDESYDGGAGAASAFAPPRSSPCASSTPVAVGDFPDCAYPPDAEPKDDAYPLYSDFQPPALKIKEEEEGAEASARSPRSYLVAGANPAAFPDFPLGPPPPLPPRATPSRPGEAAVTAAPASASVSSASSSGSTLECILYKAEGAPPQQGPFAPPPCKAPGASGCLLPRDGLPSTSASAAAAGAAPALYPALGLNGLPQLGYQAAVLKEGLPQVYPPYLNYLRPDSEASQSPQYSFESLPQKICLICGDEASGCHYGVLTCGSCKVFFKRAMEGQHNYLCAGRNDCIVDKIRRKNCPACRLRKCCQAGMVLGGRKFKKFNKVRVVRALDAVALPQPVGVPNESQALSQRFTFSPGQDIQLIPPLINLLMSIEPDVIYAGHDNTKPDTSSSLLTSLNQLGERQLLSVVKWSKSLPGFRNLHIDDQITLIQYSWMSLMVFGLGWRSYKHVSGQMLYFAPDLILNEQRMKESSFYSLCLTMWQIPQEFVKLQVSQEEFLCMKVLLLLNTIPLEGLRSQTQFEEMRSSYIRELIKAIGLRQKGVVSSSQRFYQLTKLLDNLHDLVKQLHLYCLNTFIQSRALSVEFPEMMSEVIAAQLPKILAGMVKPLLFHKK
Description: as §1

Q: Which IC50 [1] does the source give for O=c1ccc2c(NCC(O)(CC3CCOc4ccccc43)C(F)(F)F)cccc2[nH]1 (stereo not shown) [Example 1] here?
A: Its IC50 is 20 nM.

Q: And the IC50 [2]?
A: The IC50 was over 1000 nM.

Q: CC1(CC(O)(CNc2cccc3[nH]c(=O)ccc23)C(F)(F)F)CCOc2ccccc21 (single isomer, unassigned) [Example 2, 5-{[2-Hydroxy-3-(4-methylchroman-4-yl)-2-trifluoro-methylpropyl]amino}quinolin-2{1H}-one] was tested. Which IC50 [1] did it give?
A: Its IC50 is 30 nM.

Q: What about the IC50 [2] of the same compound?
A: Its IC50 is over 1000 nM.
